Experimental findings from doi:10.1101/2021.11.14.468520v1, “Exploring the kinetic selectivity of antipsychotics for dopamine D2 and 5-HT2A receptors: implications for the prevalence of EPS and receptor occupancy” (biorxiv, 2021) are described below.

Experiment [1] concerns the target T1, human 5-HT2A receptor (5-HT2AR) (Homo sapiens, UniProt P28223).
T1 construct: gene HTR2A; SNAP-tagged (SNAP-Lumi4-Tb labelled) receptor transiently expressed in CHO-K1 cells; membranes; plasmid from CisBio
The experiment is described as follows: TR-FRET saturation binding. The settings on record: labelled compound; CHO membranes; […] GppNHp, pH […]; equilibrium, […] min. (TR-FRET usually uses a lanthanide donor and a delayed reading to cut background.)

Experiment [2] concerns the target T1, human 5-HT2A receptor (5-HT2AR). Nature of the experiment: TR-FRET equilibrium competition binding. An excerpt:
TR-FRET equilibrium competition binding on human 5-HT2A receptor (5-HT2AR)

The target is the same in experiment [3]. The experiment is described as follows: biochemical. Also on record: species or system CHO. Particulars: read-out: koff (min^-1).

T1 sequence (P28223 whole entry): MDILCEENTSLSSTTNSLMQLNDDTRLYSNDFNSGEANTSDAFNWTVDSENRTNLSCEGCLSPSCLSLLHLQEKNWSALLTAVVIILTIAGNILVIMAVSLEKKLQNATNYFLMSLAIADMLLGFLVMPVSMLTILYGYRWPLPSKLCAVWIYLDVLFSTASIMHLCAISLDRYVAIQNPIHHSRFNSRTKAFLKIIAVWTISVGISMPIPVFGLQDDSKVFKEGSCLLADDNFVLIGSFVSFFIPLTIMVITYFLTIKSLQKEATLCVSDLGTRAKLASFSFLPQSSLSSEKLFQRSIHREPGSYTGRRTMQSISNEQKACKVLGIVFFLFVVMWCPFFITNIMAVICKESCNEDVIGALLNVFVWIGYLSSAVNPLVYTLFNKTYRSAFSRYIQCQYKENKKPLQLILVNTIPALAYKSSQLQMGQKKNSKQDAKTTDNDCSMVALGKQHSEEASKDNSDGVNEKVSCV

As for 4F4PP oxalate-red, the Kd (as a rule, the concentration at which binding is half-saturated) in experiment [1] amounted to 3.98 ± 0.65 nM.

For the compound `CN1CC2c3ccccc3Oc3ccc(Cl)cc3C2C1` (centres unmarked) [Asenapine], affinity in experiment [2] was put at a Ki of 0.661 nM. Moreover, the koff – broadly, a measure of how fast the partners let go of each other – in experiment [3] is 0.7 min⁻¹.

As to `Cc1nc2n(c(=O)c1CCN1CCC(c3noc4cc(F)ccc34)CC1)CCCC2O` (centres unmarked) [Paliperidone], the affinity in experiment [2], expressed as Ki, was 1.02 nM. For the same compound, the koff in experiment [3] was 0.23 min⁻¹.
